Reference: paper PMC8157854, “Radiosynthesis and Evaluation of Talazoparib and Its Derivatives as PARP-1-Targeting Agents” (Biomedicines, 2021)
Values belong to the compound of their own block, whether it stands above or below them.

Legend:
P-glycoprotein (P-gp) = system: P-glycoprotein (P-gp); design: method as in PMID 31770456; settings: cited from earlier work
intratumoral PAR = system: intratumoral PAR; design: method as in PMID 26652717; settings: at 2 and 8 h time points, partial recovery at 24 h; cited from earlier work
PARP-1 = PARP-1 (Homo sapiens, UniProt P09874); test: Competitive binding assay with [3H]WC-DZ in U251MG cells; settings: for pseudoHill coefficient n′H: competitive binding vs [3H]WC-DZ in U251MG cells, Mean ± SEM, n = 3
Description: After the reaction was completed, the cells were washed once with ice-cold PBS and the bound radioactivity was counted and analyzed as described above.
Competitive dissociation constants (Ki values) were derived from the Cheng and Prussoff equation [24]: Ki=IC50/1+Lt/Kd
Data from competitive binding were transformed to determine the pseudo-Hill coefficient, n′H, using the following equation: logBs/B0−Bs=n^′HlogI−n^′HlogIC50, in which the negative of the Hill slope, n′H, can be readily calculated by a linear regression of plotting logBs/B0−Bs vs. logI , as we published [22, 25].

PC-3 prostate tumors = test: Biodistribution of [18F]talazoparib in PC-3 tumor-bearing SCID mice; format: in vivo; settings: for tumor uptake: PC-3 tumor
Description: 2.5. Xenograft Model The animal studies were approved by Washington University’s Institutional Animal Care and Use Committee (IACUC), Protocol #20-0214 approved 7 August 2020. The overall animal care was following The Guide for the Care and Use of Laboratory Animals from the National Research Council and the USDA Animal Care Resource Guide. Mature SCID mice from Charles River Laboratories were allowed to acclimate in an AALAC accredited housing facility for at least 1 week before tumor implantation for the biodistribution study. Male SCID mice (4 weeks old, n = 4/group, 2 groups), with 1 × 10^7 PC-3 prostate cancer cells implanted subcutaneously in the right shoulder grew for about 35 days before the radiotracer biodistribution studies. 2.6. Biodistribution Animals were intravenously injected with [^18F]talazoparib (120 µCi) in 10% ethanol/saline (100 µL) via the tail vein. At the specified time point (4 and 8 h), the mice were sacrificed, the blood, lungs, liver, spleen, kidneys, muscle, fat, heart, brain, bone, bone marrow, prostate, pancreas, and tumor were harvested, weighed, and counted in a γ-counter. The percentage injected dose per gram of tissue (%ID/g) was determined by decay correction of the [^18F]talazoparib for each sample and then normalized by the standard injected radiotracer dose and the sample weight.

PARP-1, sequence (P09874 whole entry): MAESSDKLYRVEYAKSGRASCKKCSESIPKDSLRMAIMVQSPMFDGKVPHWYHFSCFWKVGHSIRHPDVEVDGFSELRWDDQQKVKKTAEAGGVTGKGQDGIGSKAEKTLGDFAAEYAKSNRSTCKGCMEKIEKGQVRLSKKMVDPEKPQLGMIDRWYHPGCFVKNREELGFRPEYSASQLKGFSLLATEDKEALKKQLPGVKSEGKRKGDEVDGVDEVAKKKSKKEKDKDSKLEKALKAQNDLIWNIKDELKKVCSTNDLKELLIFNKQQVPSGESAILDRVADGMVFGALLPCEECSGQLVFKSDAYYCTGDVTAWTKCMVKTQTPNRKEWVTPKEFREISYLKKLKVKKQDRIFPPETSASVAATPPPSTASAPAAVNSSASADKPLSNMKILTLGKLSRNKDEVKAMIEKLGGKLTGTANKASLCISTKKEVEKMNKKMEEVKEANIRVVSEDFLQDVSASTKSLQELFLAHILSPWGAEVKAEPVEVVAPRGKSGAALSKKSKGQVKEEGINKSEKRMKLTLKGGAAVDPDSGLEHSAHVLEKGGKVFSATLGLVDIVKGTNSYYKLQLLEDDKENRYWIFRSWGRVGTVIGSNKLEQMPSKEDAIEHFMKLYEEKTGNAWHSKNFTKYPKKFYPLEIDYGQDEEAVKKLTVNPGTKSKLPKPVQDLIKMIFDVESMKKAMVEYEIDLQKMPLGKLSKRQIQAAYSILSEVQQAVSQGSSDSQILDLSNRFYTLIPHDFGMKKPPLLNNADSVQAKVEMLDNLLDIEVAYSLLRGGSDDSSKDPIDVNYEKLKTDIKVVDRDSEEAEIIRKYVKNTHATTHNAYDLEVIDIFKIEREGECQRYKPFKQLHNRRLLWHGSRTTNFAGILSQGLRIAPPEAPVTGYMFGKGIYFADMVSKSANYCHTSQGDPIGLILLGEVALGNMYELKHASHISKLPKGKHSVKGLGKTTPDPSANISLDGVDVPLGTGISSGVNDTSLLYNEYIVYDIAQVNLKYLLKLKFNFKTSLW

SMILES: Cn1ncnc1[C@H]1c2n[nH]c(=O)c3cc(F)cc(c23)N[C@@H]1c1ccc(F)cc1 [3a″, (8S,9R)-5-Fluoro-8-(4-fluorophenyl)-9-(1-methyl-1H-1,2,4-triazol-5-yl)-2,7,8,9-tetrahydro-3H-pyrido[4,3,2-de]phthalazin-3-one]
P-glycoprotein substrate (P-glycoprotein (P-gp)): substrate of P-glycoprotein (P-gp)
intratumoral PAR concentration (intratumoral PAR): significantly attenuated

SMILES: CCN1CCC[C@H]1CNC(=O)c1c(O)c(Cl)cc(Cl)c1OC [Raclopride, reference compound]
Ki (PARP-1): > 20000 nM
displacement of [3H]WC-DZ (PARP-1; U251MG cells, 0.1 nM to 1 µM): No apparent displacement

SMILES: Cn1ncnc1[C@H]1c2n[nH]c(=O)c3cc(F)cc(c23)N[C@@H]1c1ccc([18F])cc1 [[^18F]talazoparib]
tumor uptake (PC-3 prostate tumors; 4 h post-injection, i.v., SCID mice): 3.78 ± 0.55 %ID/gram
tumor uptake (PC-3 prostate tumors; 8 h post-injection, i.v., SCID mice): 4.52 ± 0.32 %ID/gram
uptake in liver, spleen, kidney, and pancreas (PC-3 prostate tumors; after 4 h, only slightly reduced at 8 h): High uptake
uptake in bone marrow (PC-3 prostate tumors; at 4 and 8 h): high
time for clearance of radioactivity from the blood (PC-3 prostate tumors; blood, i.v., SCID mice): ≤ 4 h
brain uptake (PC-3 prostate tumors; brain, 4 h post-injection, i.v., SCID mice): 0.05 ± 0.01 %ID/gram

The remaining lines, values ahead:

Ki (PARP-1): 1.92 ± 0.41 nM
pseudoHill coefficient n′H (PARP-1): 1.24 ± 0.24
SMILES: Cn1ncnc1C1c2n[nH]c(=O)c3cc(F)cc(c23)NC1c1ccc(Br)cc1 (centres unmarked) [Compound 3b, 8-(4-bromophenyl)-5-fluoro-9-(1-methyl-1H-1,2,4-triazol-5-yl)-2,7,8,9-tetrahydro-3H-pyrido[4,3,2-de]phthalazin-3-one]

Ki (PARP-1): 1.73 ± 0.43 nM
pseudoHill coefficient n′H (PARP-1): 1.01 ± 0.20
SMILES: Cn1ncnc1C1c2n[nH]c(=O)c3cc(F)cc(c23)NC1c1ccc(I)cc1 (centres unmarked) [Compound 3c, 8-(4-iodophenyl)-5-fluoro-9-(1-methyl-1H-1,2,4-triazol-5-yl)-2,7,8,9-tetrahydro-3H-pyrido[4,3,2-de]phthalazin-3-one]
